For experiment [1], the system named is JAK1/JAK2-dependent nuclear translocation of STAT1-GFP in HT1080 fibrosarcoma cells. The experiment is described as follows: STAT1 nuclear translocation assay (Cellomics), IFN-γ stimulated HT1080 STAT1-GFP cells. It is filed as cell-based. In short, it runs like this: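 HT1080 cells stably expressing STAT1-GFP, pre-treated 30 min with compound (10 μM–0.003 μM, 0.1% DMSO), then stimulated 2 h with 100 ng/ml IFN-γ, fixed and Hoechst-stained. Nuclear-cytoplasmic GFP differential imaged over ≥1000 cells/well, normalised to unstimulated and DMSO-stimulated wells for IC50.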

A further experiment has as its target T1, GST-JAK2(808-1132) (Homo sapiens, UniProt O60674).
T1 construct: GST-JAK2(808-1132); purchased Invitrogen (Carlsbad, USA) #4288
Put plainly: JAK2 kinase assay (Caliper mobility shift, LabChip 3000). It counts as biochemical. An outline of the steps: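 Recombinant GST-JAK2(808-1132) kinase domain with FITC-labelled JAK3tide peptide substrate and ATP; 60 min at 30 °C, EDTA stop. Substrate/product ratio read by microfluidic mobility shift; compounds at 8 final concentrations, 10 to 0.003 μM.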

The mark [2] stands for this setting: Homo sapiens, HT-1080, STAT1 translocation pathway.

Each structure is given as a SMILES string.

T1 sequence (O60674 808-1132): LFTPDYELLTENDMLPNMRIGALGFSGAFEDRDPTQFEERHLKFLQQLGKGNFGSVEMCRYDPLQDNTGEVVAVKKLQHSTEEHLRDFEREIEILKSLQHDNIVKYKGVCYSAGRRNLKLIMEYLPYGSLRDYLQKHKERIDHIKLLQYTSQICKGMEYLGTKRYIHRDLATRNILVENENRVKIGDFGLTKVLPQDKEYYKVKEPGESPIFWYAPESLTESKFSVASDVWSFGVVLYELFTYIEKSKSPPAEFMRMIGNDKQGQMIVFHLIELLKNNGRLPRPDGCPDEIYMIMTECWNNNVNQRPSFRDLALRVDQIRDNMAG

`Cc1ccc(Nc2ncc3ccn(-c4ccc(C(=O)N5CCC(N(C)C)CC5)c(F)c4)c3n2)cc1C` [Example 299, (4-Dimethylamino-piperidin-1-yl)-{4-[2-(3,4-dimethyl-phenylamino)-pyrrolo[2,3-d]pyrimidin-7-yl]-2-fluoro-phenyl}-methanone]: the results for the IC50 (in experiment [1] (setting [2]); on GST-JAK2(808-1132)) were 145 nM and 18.5 nM, respectively.

With `Cc1ccc(Nc2ncc3ccn(-c4cc(F)c(CN5CCN(C)C(=O)C5)c(F)c4)c3n2)cc1C` [Example 310, 4-{4-[2-(3,4-Dimethyl-phenylamino)-pyrrolo[2,3-d]pyrimidin-7-yl]-2,6-difluoro-benzyl}-1-methyl-piperazin-2-one], the IC50 in experiment [1] (setting [2]) is 570 nM; on GST-JAK2(808-1132), 6.4 nM.

As for `O=C(c1c(F)cc(-n2ccc3cnc(Nc4ccccn4)nc32)cc1F)N1CCOCC1` [Example 215, {2,6-Difluoro-4-[2-(pyridin-2-ylamino)-pyrrolo[2,3-d]pyrimidin-7-yl]-phenyl}-morpholin-4-yl-methanone], the IC50 in experiment [1] (setting [2]) was determined as 10000 nM; at GST-JAK2(808-1132), 420 nM.

As to `CCN1CCN(Cc2ccc(-n3ccc4cnc(Nc5ccc(OC(C)C)cc5)nc43)cc2F)CC1` [Example 106, {7-[4-(4-Ethyl-piperazin-1-ylmethyl)-3-fluoro-phenyl]-7H-pyrrolo[2,3-d]pyrimidin-2-yl}-(4-isopropoxy-phenyl)-amine], the IC50 in experiment [1] (setting [2]) worked out at 8380 nM; at GST-JAK2(808-1132), 33 nM.

On to `Cc1ccc(Nc2ncc3ccn(-c4ccc(S(C)(=O)=O)cc4)c3n2)cc1CN1CCNCC1` [Example 333, [7-(4-Methanesulfonyl-phenyl)-7H-pyrrolo[2,3-d]pyrimidin-2-yl]-(4-methyl-3-piperazin-1-ylmethyl-phenyl)-amine], for which the IC50 in experiment [1] (setting [2]) was found to be 530 nM; at GST-JAK2(808-1132) it was 3.9 nM.

Regarding `CN1CCN(C(=O)c2ccc(Nc3ncc4ccn(-c5cc(F)c(CN6CCS(=O)(=O)CC6)c(F)c5)c4n3)cc2C(F)(F)F)CC1` [Example 186, (4-{7-[4-(1,1-Dioxido-thiomorpholin-4-ylmethyl)-3,5-difluoro-phenyl]-7H-pyrrolo[2,3-d]pyrimidin-2-ylamino}-2-trifluoromethyl-phenyl)-(4-methyl-piperazin-1-yl)-methanone], the figures for the 50% inhibitory concentration (IC50) (in experiment [1] (setting [2]); at GST-JAK2(808-1132)) were 95 nM and less than 3 nM, respectively.

Regarding `Fc1cc(-n2ccc3cnc(Nc4ccc(N5CCNCC5)nc4)nc32)cc(F)c1CN1CCOCC1` [Example 263, [7-(3,5-Difluoro-4-morpholin-4-ylmethyl-phenyl)-7H-pyrrolo[2,3-d]pyrimidin-2-yl]-(6-piperazin-1-yl-pyridin-3-yl)-amine], the concentration for half-maximal inhibition (IC50) in experiment [1] (setting [2]) was 55 nM; at GST-JAK2(808-1132), less than 3 nM.

On to `Cc1ccc(Nc2ncc3ccn(-c4cc(F)c(C(=O)N5CCOCC5)c(F)c4)c3n2)cn1` [Example 219, {2,6-Difluoro-4-[2-(6-methyl-pyridin-3-ylamino)-pyrrolo[2,3-d]pyrimidin-7-yl]-phenyl}-morpholin-4-yl-methanone], for which the IC50 in experiment [1] (setting [2]) turned out to be 518 nM; on GST-JAK2(808-1132), 7.7 nM.

`CC(C)Oc1ccc(Nc2ncc3ccn(-c4ccc(S(C)(=O)=O)cc4)c3n2)cc1` [Example 3, (4-Isopropoxy-phenyl)-[7-(4-methanesulfonyl-phenyl)-7H-pyrrolo[2.3-d]pyrimidin-2-yl]-amine]: the IC50 in experiment [1] (STAT1 translocation pathway) turned out to be 98.5 nM; on GST-JAK2(808-1132), 9.4 nM.

Consider `O=C(c1ccc(Nc2ncc3ccn(-c4ccc(CN5CCS(=O)(=O)CC5)cc4)c3n2)cc1)N1CCOCC1` [Example 153, (4-{7-[4-(1,1-Dioxido-thiomorpholin-4-ylmethyl)-phenyl]-7H-pyrrolo[2,3-d]pyrimidin-2-ylamino}-phenyl)-morpholin-4-yl-methanone], for which the concentration for half-maximal inhibition (IC50) is 17.5 nM in experiment [1] (setting [2]) and less than 3 nM at GST-JAK2(808-1132).

For the compound `CC(C)Oc1ccc(Nc2ncc3ccn(-c4ccc(CCN5CCOCC5)cc4)c3n2)cc1` [Example 115, (4-Isopropoxy-phenyl)-{7-[4-(2-morpholin-4-yl-ethyl)-phenyl]-7H-pyrrolo[2,3-d]pyrimidin-2-yl}-amine], the concentration for half-maximal inhibition (IC50) turned out to be 714 nM in experiment [1] (setting [2]) and 16 nM at GST-JAK2(808-1132).

For `Cc1cc(Nc2ncc3ccn(-c4ccc(S(C)(=O)=O)cc4)c3n2)ccc1C(=O)N1CCOCC1` [Example 74, {4-[7-(4-Methanesulfonyl-phenyl)-7H-pyrrolo[2,3-d]pyrimidin-2-ylamino]-2-methyl-phenyl}-morpholin-4-yl-methanone], the half-maximal inhibitory concentration (IC50) in experiment [1] (setting [2]) is 75.5 nM; on GST-JAK2(808-1132), less than 3 nM.

Turning to `Cc1cc(Nc2ncc3ccn(-c4ccc(S(C)(=O)=O)cc4)c3n2)ccc1C(=O)N1CCCC1` [Example 75, {4-[7-(4-Methanesulfonyl-phenyl)-7H-pyrrolo[2,3-d]pyrimidin-2-ylamino]-2-methyl-phenyl}-pyrrolidin-1-yl-methanone], the results for the IC50 (in experiment [1] (setting [2]); on GST-JAK2(808-1132)) were 82.5 nM and less than 3 nM, respectively.

In the case of `CCN1CCN(c2ccc(Nc3ncc4ccn(-c5ccc(C(=O)N6CCOCC6)c(F)c5)c4n3)cc2C)CC1` [Example 293, (4-{2-[4-(4-Ethyl-piperazin-1-yl)-3-methyl-phenylamino]-pyrrolo[2,3-d]pyrimidin-7-yl}-2-fluoro-phenyl)-morpholin-4-yl-methanone], the 50% inhibitory concentration (IC50) in experiment [1] (setting [2]) is 8 nM; on GST-JAK2(808-1132), less than 3 nM.

For the compound `CN(C)CCNC(=O)c1cccc(Nc2ncc3ccn(-c4ccc(S(C)(=O)=O)cc4)c3n2)c1` [Example 50, N-(2-Dimethylamino-ethyl)-3-[7-(4-methanesulfonyl-phenyl)-7H-pyrrolo[2,3-d]pyrimidin-2-ylamino]-benzamide], the IC50 in experiment [1] (setting [2]) is 184 nM; on GST-JAK2(808-1132), less than 3 nM.

Consider `CC(C)Oc1ccc(Nc2ncc3ccn(-c4ccc(C(=O)N5CCOCC5)c(F)c4)c3n2)cn1` [Example 226, {2-Fluoro-4-[2-(6-isopropoxy-pyridin-3-ylamino)-pyrrolo[2,3-d]pyrimidin-7-yl]-phenyl}-morpholin-4-yl-methanone], for which the IC50 in experiment [1] (setting [2]) is 666 nM; at GST-JAK2(808-1132), 10.5 nM.

Regarding `Cc1ccc(Nc2ncc3ccn(-c4cc(F)c(CN5CCN(C(C)C)CC5)c(F)c4)c3n2)cc1C` [Example 305, {7-[3,5-Difluoro-4-(4-isopropyl-piperazin-1-ylmethyl)-phenyl]-7H-pyrrolo[2,3-d]pyrimidin-2-yl}-(3,4-dimethyl-phenyl)-amine], the values for the 50% inhibitory concentration (IC50) (in experiment [1] (setting [2]); at GST-JAK2(808-1132)) were 2680 nM and 26 nM, respectively.

Take `CN1CCN(Cc2cccc(Nc3ncc4ccn(-c5cc(F)c(C(=O)N6CCOCC6)c(F)c5)c4n3)c2)CC1` [Example 245, (2,6-Difluoro-4-{2-[3-(4-methyl-piperazin-1-ylmethyl)-phenylamino]-pyrrolo[2,3-d]pyrimidin-7-yl}-phenyl)-morpholin-4-yl-methanone]: the IC50 in experiment [1] (setting [2]) is 430 nM; at GST-JAK2(808-1132), less than 3 nM.

Take `CS(=O)(=O)c1ccc(-n2ccc3cnc(Nc4ccc(C(=O)NCCN5CCOCC5)cc4)nc32)cc1` [Example 67, 4-[7-(4-Methanesulfonyl-phenyl)-7H-pyrrolo[2,3-d]pyrimidin-2-ylamino]-N-(2-morpholin-4-yl-ethyl)-benzamide]: the half-inhibitory concentration (IC50) in experiment [1] (setting [2]) was 39 nM; at GST-JAK2(808-1132) it was less than 3 nM.

For the compound `Fc1cc(-n2ccc3cnc(Nc4ccccc4)nc32)cc(F)c1CN1CCOCC1` [Example 208, [7-(3,5-Difluoro-4-morpholin-4-ylmethyl-phenyl)-7H-pyrrolo[2,3-d]pyrimidin-2-yl]-phenyl-amine], the IC50 in experiment [1] (setting [2]) worked out at 442 nM; on GST-JAK2(808-1132), 4.8 nM.

`CCOc1ccc(Nc2ncc3ccn(-c4ccc(CN5CCOCC5)cc4)c3n2)cc1OCC` [Example 147, (3,4-Diethoxy-phenyl)-[7-(4-morpholin-4-ylmethyl-phenyl)-7H-pyrrolo[2,3-d]pyrimidin-2-yl]-amine]: the half-inhibitory concentration (IC50) in experiment [1] (setting [2]) was 33 nM; on GST-JAK2(808-1132) it was less than 3 nM.

Regarding `CC(C)Oc1ccc(Nc2ncc3ccn(-c4ccc(C(=O)N5CCOCC5)cc4)c3n2)cc1` [Example 231, {4-[2-(4-Isopropoxy-phenylamino)-pyrrolo[2,3-d]pyrimidin-7-yl]-phenyl}-morpholin-4-yl-methanone], the half-inhibitory concentration (IC50) in experiment [1] (setting [2]) was 258 nM; on GST-JAK2(808-1132), 3.2 nM.

On to `CC(C)Oc1ccc(Nc2ncc3ccn(-c4ccc(C(=O)N5CCN(C)CC5)c(F)c4)c3n2)cc1` [Example 85, {2-Fluoro-4-[2-(4-isopropoxy-phenylamino)-pyrrolo[2,3-d]pyrimidin-7-yl]-phenyl}-(4-methyl-piperazin-1-yl)-methanone], for which the IC50 in experiment [1] (setting [2]) came to 3500 nM; on GST-JAK2(808-1132), 3.8 nM.

With `CCN1CCN(Cc2c(F)cc(-n3ccc4cnc(Nc5ccc(F)c(C)c5)nc43)cc2F)CC1=O` [Example 134, 4-{2,6-Difluoro-4-[2-(4-fluoro-3-methyl-phenylamino)-pyrrolo[2,3-d]pyrimidin-7-yl]-benzyl}-1-ethyl-piperazin-2-one], the 50% inhibitory concentration (IC50) stood at 1880 nM in experiment [1] (setting [2]) and 20.5 nM at GST-JAK2(808-1132).

As for `Cc1ccc(Nc2ncc3ccn(-c4cc(F)c(CN5CCNC(=O)C5)c(F)c4)c3n2)cc1C` [Example 312, 4-{4-[2-(3,4-Dimethyl-phenylamino)-pyrrolo[2,3-d]pyrimidin-7-yl]-2,6-difluoro-benzyl}-piperazin-2-one], the results for the half-inhibitory concentration (IC50) (in experiment [1] (setting [2]); at GST-JAK2(808-1132)) were 565 nM and 13 nM, respectively.

Regarding `Cn1cc(Nc2ncc3ccn(-c4cc(F)c(CN5CCOCC5)c(F)c4)c3n2)cn1` [Example 247, [7-(3,5-Difluoro-4-morpholin-4-ylmethyl-phenyl)-7H-pyrrolo[2,3-d]pyrimidin-2-yl]-(1-methyl-1H-pyrazol-4-yl)-amine], the IC50 in experiment [1] (setting [2]) came out at 255 nM; on GST-JAK2(808-1132) it was 3.7 nM.

Values taken from patent publication US8420657B2 (Novartis AG, priority 2008, dated 2013).
